Data reported in patent US8802597B2, “Herbicidal pyrimidines” (E I du Pont de Nemours and Company, priority 2003, dated 2014).
Read-outs that look alike come from different tables or passages of the source.

How the values were obtained:
Assay type in all cases: in vivo
[1] = test system: bermudagrass (Cynodon dactylon); test: Test C pre/postemergence; conditions: Cynodon dactylon; for pest or weed control at 62 g/ha: 62 g ai/ha; for pest or weed control at 125 g/ha: 125 g ai/ha; for pest or weed control at 125 g/ha / pest or weed control at 250 g/ha / pest or weed control at 500 g/ha: scale 0 to 100; for pest or weed control at 250 g/ha: 250 g ai/ha; for pest or weed control at 500 g/ha: 500 g ai/ha
Outline: (§1)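 Greenhouse herbicide screen, visual readout. Compound in solvent/surfactant applied preemergence at planting or postemergence to 1- to 4-leaf plants; assessed at 12–14 days on a 0–100 control scale.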

[2] = test system: yellow nutsedge (Cyperus esculentus); test: Test C pre/postemergence; conditions: Cyperus; for pest or weed control at 62 g/ha: 62 g ai/ha; for pest or weed control at 125 g/ha: 125 g ai/ha; for pest or weed control at 250 g/ha: 250 g ai/ha; for pest or weed control at 500 g/ha: 500 g ai/ha
Outline: as §1

[3] = test system: woolly cupgrass (Eriochloa villosa); test: Test C pre/postemergence; conditions: Eriochloa villosa; for pest or weed control at 62 g/ha: 62 g ai/ha; for pest or weed control at 125 g/ha: 125 g ai/ha; for pest or weed control at 250 g/ha: 250 g ai/ha; for pest or weed control at 500 g/ha: 500 g ai/ha
Outline: as §1

[4] = test system: velvetleaf (Abutilon theophrasti); test: Test C pre/postemergence; conditions: Abutilon theophrasti; for pest or weed control at 62 g/ha: 62 g ai/ha; for pest or weed control at 125 g/ha: 125 g ai/ha; for pest or weed control at 250 g/ha: 250 g ai/ha; for pest or weed control at 500 g/ha: 500 g ai/ha
Outline: as §1

[5] = test system: pigweed (Amaranthus retroflexus); test: Test C pre/postemergence; conditions: Amaranthus retroflexus; for pest or weed control at 62 g/ha: 62 g ai/ha; for pest or weed control at 125 g/ha: 125 g ai/ha; for pest or weed control at 250 g/ha: 250 g ai/ha; for pest or weed control at 500 g/ha: 500 g ai/ha
Outline: as §1

[6] = test system: goosegrass (Eleusine indica); test: Test C pre/postemergence; conditions: Eleusine indica; for pest or weed control at 62 g/ha: 62 g ai/ha; for pest or weed control at 125 g/ha: 125 g ai/ha; for pest or weed control at 250 g/ha: 250 g ai/ha; for pest or weed control at 500 g/ha: 500 g ai/ha
Outline: as §1

[7] = test system: common ragweed (Ambrosia elatior); test: Test C pre/postemergence; conditions: Ambrosia artemisiifolia; for pest or weed control at 62 g/ha: 62 g ai/ha; for pest or weed control at 125 g/ha: 125 g ai/ha; for pest or weed control at 250 g/ha: 250 g ai/ha; for pest or weed control at 500 g/ha: 500 g ai/ha
Outline: as §1

[8] = test system: chickweed (Stellaria media); test: Test C postemergence; conditions: Stellaria media, post-emergence
Outline: as §1

[9] = post-emergence, Postemergence, read-out: Plant response rating, Bermudagrass
[10] = pre-emergence, Preemergence, read-out: Plant response rating, Bermudagrass
[11] = post-emergence, Postemergence, scale 0 to 100 (0 no effect, 100 complete control), read-out: Nutsedge, Yellow plant response rating
[12] = post-emergence, Postemergence, scale 0 to 100, read-out: Plant response rating, Nutsedge, Yellow
[13] = pre-emergence, Preemergence, scale 0 to 100, read-out: Plant response rating, Nutsedge, Yellow
[14] = post-emergence, Postemergence, scale 0 to 100 (0 no effect, 100 complete control), read-out: Cupgrass, Woolly plant response rating
[15] = post-emergence, Postemergence, scale 0 to 100, read-out: Plant response rating, Cupgrass, Woolly
[16] = pre-emergence, Preemergence, scale 0 to 100, read-out: Plant response rating, Cupgrass, Woolly
[17] = post-emergence, Postemergence, scale 0 to 100 (0 no effect, 100 complete control), read-out: Velvetleaf plant response rating
[18] = post-emergence, Postemergence, scale 0 to 100, read-out: Plant response rating, Velvetleaf
[19] = pre-emergence, Preemergence, scale 0 to 100, read-out: Plant response rating, Velvetleaf
[20] = post-emergence, Postemergence, scale 0 to 100 (0 no effect, 100 complete control), read-out: Pigweed plant response rating
[21] = post-emergence, Postemergence, scale 0 to 100, read-out: Plant response rating, Pigweed
[22] = pre-emergence, Preemergence, scale 0 to 100, read-out: Plant response rating, Pigweed
[23] = post-emergence, Postemergence, scale 0 to 100 (0 no effect, 100 complete control), read-out: Goosegrass plant response rating
[24] = post-emergence, Postemergence, scale 0 to 100, read-out: Plant response rating, Goosegrass
[25] = pre-emergence, Preemergence, scale 0 to 100, read-out: Plant response rating, Goosegrass
[26] = post-emergence, Postemergence, scale 0 to 100 (0 no effect, 100 complete control), read-out: Ragweed plant response rating
[27] = post-emergence, Postemergence, scale 0 to 100, read-out: Plant response rating, Ragweed
[28] = pre-emergence, Preemergence, scale 0 to 100, read-out: Plant response rating, Ragweed

SMILES: CCOC(=O)c1nc(C2CC2)nc(N)c1Cl [Compound 4, ethyl 6-amino-5-chloro-2-cyclopropyl-4-pyrimidinecarboxylate]
- pest or weed control at 62 g/ha ([1]; post-emergence, Postemergence, scale 0 to 100 (0 no effect, 100 complete control), read-out: Bermudagrass plant response rating): 40%
- pest or weed control at 125 g/ha [1, 9]: 65%
- pest or weed control at 250 g/ha [1, 9]: 70%
- pest or weed control at 500 g/ha [1, 9]: 80%
- pest or weed control at 62 g/ha ([1]; pre-emergence, Preemergence, scale 0 to 100, 0 no effect, 100 complete control, read-out: Plant response rating, Bermudagrass): 0%
- pest or weed control at 125 g/ha [1, 10]: 20%
- pest or weed control at 250 g/ha [1, 10]: 45%
- pest or weed control at 500 g/ha [1, 10]: 95%
- pest or weed control at 62 g/ha [2, 11]: 0%
- pest or weed control at 125 g/ha [2, 11]: 0%
- pest or weed control at 250 g/ha [2, 12]: 0%
- pest or weed control at 500 g/ha [2, 12]: 0%
- pest or weed control at 62 g/ha ([2]; pre-emergence, Preemergence, scale 0 to 100, 0 no effect, 100 complete control, read-out: Plant response rating, Nutsedge, Yellow): 0%
- pest or weed control at 125 g/ha [2, 13]: 0%
- pest or weed control at 250 g/ha [2, 13]: 15%
- pest or weed control at 500 g/ha [2, 13]: 80%
- pest or weed control at 62 g/ha [3, 14]: 60%
- pest or weed control at 125 g/ha [3, 14]: 70%
- pest or weed control at 250 g/ha [3, 15]: 85%
- pest or weed control at 500 g/ha [3, 15]: 95%
- pest or weed control at 62 g/ha ([3]; pre-emergence, Preemergence, scale 0 to 100, 0 no effect, 100 complete control, read-out: Plant response rating, Cupgrass, Woolly): 0%
- pest or weed control at 125 g/ha [3, 16]: 80%
- pest or weed control at 250 g/ha [3, 16]: 95%
- pest or weed control at 500 g/ha [3, 16]: 95%
- pest or weed control at 62 g/ha [4, 17]: 80%
- pest or weed control at 125 g/ha [4, 17]: 100%
- pest or weed control at 250 g/ha [4, 18]: 100%
- pest or weed control at 500 g/ha [4, 18]: 100%
- pest or weed control at 62 g/ha ([4]; pre-emergence, Preemergence, scale 0 to 100, 0 no effect, 100 complete control, read-out: Plant response rating, Velvetleaf): 75%
- pest or weed control at 125 g/ha [4, 19]: 95%
- pest or weed control at 250 g/ha [4, 19]: 95%
- pest or weed control at 500 g/ha [4, 19]: 100%
- pest or weed control at 62 g/ha [5, 20]: 100%
- pest or weed control at 125 g/ha [5, 20]: 100%
- pest or weed control at 250 g/ha [5, 21]: 100%
- pest or weed control at 500 g/ha [5, 21]: 100%
- pest or weed control at 62 g/ha ([5]; pre-emergence, Preemergence, scale 0 to 100, 0 no effect, 100 complete control, read-out: Plant response rating, Pigweed): 95%
- pest or weed control at 125 g/ha [5, 22]: 100%
- pest or weed control at 250 g/ha [5, 22]: 100%
- pest or weed control at 500 g/ha [5, 22]: 100%
- pest or weed control at 62 g/ha [6, 23]: 0%
- pest or weed control at 125 g/ha [6, 23]: 20%
- pest or weed control at 250 g/ha [6, 24]: 65%
- pest or weed control at 500 g/ha [6, 24]: 75%
- pest or weed control at 62 g/ha ([6]; pre-emergence, Preemergence, scale 0 to 100, 0 no effect, 100 complete control, read-out: Plant response rating, Goosegrass): 0%
- pest or weed control at 125 g/ha [6, 25]: 25%
- pest or weed control at 250 g/ha [6, 25]: 55%
- pest or weed control at 500 g/ha [6, 25]: 65%
- pest or weed control at 62 g/ha [7, 26]: 100%
- pest or weed control at 125 g/ha [7, 26]: 100%
- pest or weed control at 250 g/ha [7, 27]: 100%
- pest or weed control at 500 g/ha [7, 27]: 100%
- pest or weed control at 62 g/ha ([7]; pre-emergence, Preemergence, scale 0 to 100, 0 no effect, 100 complete control, read-out: Plant response rating, Ragweed): 100%
- pest or weed control at 125 g/ha [7, 28]: 100%
- pest or weed control at 250 g/ha [7, 28]: 100%
- pest or weed control at 500 g/ha [7, 28]: 100%
- pest or weed control at 62 g/ha ([8]; 62 g ai/ha, scale 0 to 100 (0 no effect, 100 complete control), read-out: Chickweed plant response rating): 30%
- pest or weed control at 125 g/ha ([8]; 125 g ai/ha, scale 0 to 100, read-out: Plant response rating, Chickweed): 85%
- pest or weed control at 250 g/ha ([8]; 250 g ai/ha, scale 0 to 100, read-out: Plant response rating, Chickweed): 100%
- pest or weed control at 500 g/ha ([8]; 500 g ai/ha, scale 0 to 100, read-out: Plant response rating, Chickweed): 100%
